Test results as given in PubChem BioAssay (NCI).
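Cultured in 96-well plates, cells were exposed to test compound for 48 hours across five concentrations. TGI: concentration producing complete growth inhibition.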

Key:
Test in all cases: inhibition of tumour cell growth, NCI panel, 48 h
DMS 114 small cell lung = system: DMS 114 small cell lung
HS 578T breast = system: HS 578T breast
KM12 colon = system: KM12 colon
MOLT-4 leukemia = system: MOLT-4 leukemia
NCI-H522 lung = system: NCI-H522 lung
DU-145 prostate = system: DU-145 prostate
DMS 273 small cell lung = system: DMS 273 small cell lung
RXF 393 renal = system: RXF 393 renal
HOP-18 NSCLC = system: HOP-18 NSCLC
U251 CNS = system: U251 CNS
MDA-MB-435 = system: MDA-MB-435
EKVX NSCLC = system: EKVX NSCLC
HOP-92 NSCLC = system: HOP-92 NSCLC
RPMI-8226 leukemia = system: RPMI-8226 leukemia
COLO 205 colon = system: COLO 205 colon
SR leukemia = system: SR leukemia
DLD-1 colon = system: DLD-1 colon
BT-549 breast = system: BT-549 breast
LXFL 529 NSCLC = system: LXFL 529 NSCLC
SF-539 CNS = system: SF-539 CNS
UACC-257 melanoma = system: UACC-257 melanoma
786-0 renal = system: 786-0 renal
OVCAR-4 ovarian = system: OVCAR-4 ovarian
SF-268 CNS = system: SF-268 CNS
SK-MEL-5 melanoma = system: SK-MEL-5 melanoma
HCT-15 colon = system: HCT-15 colon
M14 melanoma = system: M14 melanoma
HCT-116 colon = system: HCT-116 colon
A549 NSCLC = system: A549 NSCLC
NCI-H460 lung = system: NCI-H460 lung
NCI-H226 lung = system: NCI-H226 lung
SW-620 colon = system: SW-620 colon
HOP-62 NSCLC = system: HOP-62 NSCLC
MDA-MB-231 breast = system: MDA-MB-231 breast
XF 498 CNS = system: XF 498 CNS
OVCAR-5 ovarian = system: OVCAR-5 ovarian
SF-295 CNS = system: SF-295 CNS
A498 renal = system: A498 renal
MALME-3M melanoma = system: MALME-3M melanoma
ACHN renal = system: ACHN renal
K-562 leukemia = system: K-562 leukemia
SK-OV-3 ovarian = system: SK-OV-3 ovarian
CCRF-CEM leukemia = system: CCRF-CEM leukemia
SK-MEL-28 melanoma = system: SK-MEL-28 melanoma
CAKI-1 renal = system: CAKI-1 renal
PC-3 prostate = system: PC-3 prostate
RXF-631 renal = system: RXF-631 renal
SNB-75 CNS = system: SNB-75 CNS
HT29 colon = system: HT29 colon
HL-60(TB) leukemia = system: HL-60(TB) leukemia
SN12C renal = system: SN12C renal
OVCAR-8 ovarian = system: OVCAR-8 ovarian
NCI/ADR-RES ovarian = system: NCI/ADR-RES ovarian
SNB-78 CNS = system: SNB-78 CNS
UACC-62 melanoma = system: UACC-62 melanoma
M19-MEL melanoma = system: M19-MEL melanoma
MDA-N = system: MDA-N
OVCAR-3 ovarian = system: OVCAR-3 ovarian
LOX IMVI melanoma = system: LOX IMVI melanoma
IGROV1 ovarian = system: IGROV1 ovarian
NCI-H23 lung = system: NCI-H23 lung
HCC-2998 colon = system: HCC-2998 colon
UO-31 renal = system: UO-31 renal
TK-10 renal = system: TK-10 renal
SK-MEL-2 melanoma = system: SK-MEL-2 melanoma
T-47D breast = system: T-47D breast
SNB-19 CNS = system: SNB-19 CNS
KM20L2 colon = system: KM20L2 colon
MCF7 breast = system: MCF7 breast

Nc1ccc(S(=O)(=O)Nc2cnc3ccccc3n2)cc1
TGI (DMS 114 small cell lung): > 100 µM
TGI (HS 578T breast): 35.3 µM
TGI (KM12 colon): > 100 µM
TGI (MOLT-4 leukemia): > 100 µM
TGI (NCI-H522 lung): > 100 µM
TGI (DU-145 prostate): > 100 µM
TGI (DMS 273 small cell lung): > 100 µM
TGI (RXF 393 renal): > 100 µM
TGI (HOP-18 NSCLC): > 100 µM
TGI (U251 CNS): > 100 µM
TGI (MDA-MB-435): > 100 µM
TGI (EKVX NSCLC): > 100 µM
TGI (HOP-92 NSCLC): > 100 µM
TGI (RPMI-8226 leukemia): > 100 µM
TGI (COLO 205 colon): > 100 µM
TGI (SR leukemia): > 100 µM
TGI (DLD-1 colon): > 100 µM
TGI (BT-549 breast): > 100 µM
TGI (LXFL 529 NSCLC): > 100 µM
TGI (SF-539 CNS): > 100 µM
TGI (UACC-257 melanoma): > 100 µM
TGI (786-0 renal): > 100 µM
TGI (OVCAR-4 ovarian): > 100 µM
TGI (SF-268 CNS): > 100 µM
TGI (SK-MEL-5 melanoma): > 100 µM
TGI (HCT-15 colon): > 100 µM
TGI (M14 melanoma): > 100 µM
TGI (HCT-116 colon): > 100 µM
TGI (A549 NSCLC): > 100 µM
TGI (NCI-H460 lung): > 100 µM
TGI (NCI-H226 lung): > 100 µM
TGI (SW-620 colon): > 100 µM
TGI (HOP-62 NSCLC): > 100 µM
TGI (MDA-MB-231 breast): > 100 µM
TGI (XF 498 CNS): > 100 µM
TGI (OVCAR-5 ovarian): > 100 µM
TGI (SF-295 CNS): > 100 µM
TGI (A498 renal): > 100 µM
TGI (MALME-3M melanoma): > 100 µM
TGI (ACHN renal): > 100 µM
TGI (K-562 leukemia): > 100 µM
TGI (SK-OV-3 ovarian): > 100 µM
TGI (CCRF-CEM leukemia): > 100 µM
TGI (SK-MEL-28 melanoma): > 100 µM
TGI (CAKI-1 renal): > 100 µM
TGI (PC-3 prostate): > 100 µM
TGI (RXF-631 renal): > 100 µM
TGI (SNB-75 CNS): > 100 µM
TGI (HT29 colon): > 100 µM
TGI (HL-60(TB) leukemia): > 100 µM
TGI (SN12C renal): > 100 µM
TGI (OVCAR-8 ovarian): > 100 µM
TGI (NCI/ADR-RES ovarian): > 100 µM
TGI (SNB-78 CNS): > 100 µM
TGI (UACC-62 melanoma): > 100 µM
TGI (M19-MEL melanoma): > 100 µM
TGI (MDA-N): > 100 µM
TGI (OVCAR-3 ovarian): > 100 µM
TGI (LOX IMVI melanoma): > 100 µM
TGI (IGROV1 ovarian): > 100 µM
TGI (NCI-H23 lung): > 100 µM
TGI (HCC-2998 colon): > 100 µM
TGI (UO-31 renal): > 100 µM
TGI (TK-10 renal): > 100 µM
TGI (SK-MEL-2 melanoma): > 100 µM
TGI (T-47D breast): > 100 µM
TGI (SNB-19 CNS): > 100 µM
TGI (KM20L2 colon): > 100 µM

CC(=O)N(O)CCCCCNC(=O)CCC(=O)N(O)CCCCCNC(=O)CCC(=O)N(O)CCCCCN
TGI (MCF7 breast): > 100 µM
TGI (DMS 114 small cell lung): > 100 µM
TGI (HS 578T breast): > 100 µM
TGI (KM12 colon): > 100 µM
TGI (MOLT-4 leukemia): > 82.8 µM
TGI (NCI-H522 lung): > 100 µM
TGI (DU-145 prostate): > 60.1 µM
TGI (DMS 273 small cell lung): > 100 µM
TGI (RXF 393 renal): > 100 µM
TGI (HOP-18 NSCLC): 83.2 µM
TGI (U251 CNS): > 100 µM
TGI (MDA-MB-435): > 100 µM
TGI (EKVX NSCLC): > 100 µM
TGI (HOP-92 NSCLC): > 100 µM
TGI (RPMI-8226 leukemia): > 100 µM
TGI (COLO 205 colon): > 100 µM
TGI (SR leukemia): > 77.5 µM
TGI (DLD-1 colon): > 100 µM
TGI (BT-549 breast): > 100 µM
TGI (LXFL 529 NSCLC): > 100 µM
TGI (SF-539 CNS): > 92.3 µM
TGI (UACC-257 melanoma): > 100 µM
TGI (786-0 renal): > 100 µM
TGI (OVCAR-4 ovarian): > 100 µM
TGI (SF-268 CNS): > 100 µM
TGI (SK-MEL-5 melanoma): > 85.5 µM
TGI (HCT-15 colon): > 100 µM
TGI (M14 melanoma): > 100 µM
TGI (HCT-116 colon): > 100 µM
TGI (A549 NSCLC): > 100 µM
TGI (NCI-H460 lung): > 54.9 µM
TGI (NCI-H226 lung): > 92.3 µM
TGI (SW-620 colon): > 100 µM
TGI (HOP-62 NSCLC): > 100 µM
TGI (MDA-MB-231 breast): > 100 µM
TGI (XF 498 CNS): > 100 µM
TGI (OVCAR-5 ovarian): 84 µM
TGI (SF-295 CNS): > 100 µM
TGI (A498 renal): > 100 µM
TGI (MALME-3M melanoma): > 100 µM
TGI (ACHN renal): > 100 µM
TGI (K-562 leukemia): > 100 µM
TGI (SK-OV-3 ovarian): > 100 µM
TGI (CCRF-CEM leukemia): > 54.4 µM
TGI (SK-MEL-28 melanoma): > 100 µM
TGI (CAKI-1 renal): > 100 µM
TGI (PC-3 prostate): > 100 µM
TGI (RXF-631 renal): > 100 µM
TGI (SNB-75 CNS): > 100 µM
TGI (HT29 colon): > 100 µM
TGI (HL-60(TB) leukemia): > 76.9 µM
TGI (SN12C renal): > 100 µM
TGI (OVCAR-8 ovarian): > 100 µM
TGI (NCI/ADR-RES ovarian): > 100 µM
TGI (SNB-78 CNS): > 100 µM
TGI (UACC-62 melanoma): > 100 µM
TGI (M19-MEL melanoma): > 100 µM
TGI (MDA-N): > 100 µM
TGI (OVCAR-3 ovarian): > 100 µM
TGI (LOX IMVI melanoma): > 100 µM
TGI (IGROV1 ovarian): > 100 µM
TGI (NCI-H23 lung): > 100 µM
TGI (HCC-2998 colon): > 100 µM
TGI (UO-31 renal): > 100 µM
TGI (TK-10 renal): > 100 µM
TGI (SK-MEL-2 melanoma): > 100 µM
TGI (T-47D breast): > 100 µM
TGI (SNB-19 CNS): > 100 µM
TGI (KM20L2 colon): > 100 µM
